Test results: US20230414657A1, “Novel compositions for neutralizing toxic effects of hydrogen peroxide in living cells or tissues” (Dzala LLC, priority 2020, published 2023)

Tests used:
[1] = test system: gox-1, ghpr-1, gcst-1, mel-32 and gcs-1 genes; experiment: Quantitative real-time PCR of glycolate pathway genes; format: in vivo, C. elegans
Experimental: The differential expression of F41E6.5 (gox-1), C31C9.2 (ghpr-1), gcst-1, mel-32 and gcs-1 genes was measured using qRT-PCR. ˜5000 L1 N2 worms were exposed to each condition for 3 days at 15° Cas described above and then washed three times with H2O. Total RNA was isolated using the RNeasy Mini Kit (Qiagen) and equal amounts of all samples were reverse transcribed with SuperScript Ill (Invitrogen) using oligo(dT) 12-18 primers. cDNA quality was tested using standard PCR. qRT-PCR was performed using pre-designed TaqMan Gene Expression Assay (ThermoFischer Scientific) with at least three samples in triplicates. For the relative quantification of gene expression levels, the 2^−ΔΔCT method and results were normalized to the expression level of the cdc-42 gene. Expression levels were averaged over technical and biological replicates, […]

[2] = test system: living organism treated with Paraquat (PQ2+); details: cited from earlier work
[3] = test system: C. elegans; experiment: Quantification of glutathione (GSH/GSSG-Glo); format: in vivo
Experimental: Sample preparation was performed as described previously with some modifications^6. From each condition 10,000 synchronized animals were harvested and washed 3 times with sterile water. […] To thoroughly lyse the worms, 5 cycles of freezing and thawing were performed in a water bath at 37° C., followed by a 1-min sonication. The samples were then centrifuged and the supernatant tested for protein estimation and GSH quantification. Total GSH, GSSG, and GSH/GSSG ratios were quantified using the GSH/GSSG-Glo assay kit (Promega) following the instructions of the manufacturer. Briefly, each sample was tested in triplicate in 96-well culture plates with total glutathione or GSSG lysis reagent, for total glutathione or GSSG measurement, respectively. The GSH probe, luciferin-NT, was converted to luciferin, which is coupled to a firefly luciferase. The plates were then read in an […] plate reader (Perkin Elmer, United States). The GSSG value was subtracted from the total glutathione to calculate GSH levels and GSH/GSSG ratio. Four biological replicates were analyzed for each condition.

[4] = test system: C. elegans; experiment: H2O2 accumulation in worms (Amplex Red); format: in vivo; details: co-supplemented with peroxide and GA vs peroxide alone, 3 days
Experimental: Hydrogen peroxide was measured using the Amplex Red hydrogen peroxide/peroxidase assay kit (Molecular Probes, Eugene, OR), adapting the protocol to C. elegans. In the presence of hydrogen peroxide, Amplex Red is oxidized by horseradish peroxidase to form a red-fluorescent oxidation product whose fluorescence intensity can be measured.
To measure ROS production from C. elegans, 5000-7000 L1 worms were exposed to each condition for 2-3 days as indicated and then washed four times in 1 ml of the reaction buffer supplied with the kit. Volumes were adjusted to 700-1200 nematodes/50 μl and 50 μl was pipetted into a 96-well plate. A total of 50 μl of the Amplex Red reaction buffer was then added to the wells, and after 1 hr fluorescence was measured with a fluorescence microplate reader using excitation at 530±12.5 nm and fluorescence detection at 590±17.5 nm. Background fluorescence, determined for a no-H2O2 control reaction, was subtracted from each value. The significance of differences between conditions was determined by an unpaired fest. GraphPadPrism 8.0 was used for these calculations. Three biological replicates were carried out for each condition.

[5] = test system: C. elegans; format: in vivo; details: 100 mM H2O2 plus supplement (10 mM GA, 100 μM glycine or 500 μM L-serine)
Experimental: Mitochondrial staining was performed as described previously^3,4. Briefly, L1 worms were grown on plate or in liquid culture for 2-3 days at 15° C. […] Next, the excess dye was washed off with M9 buffer and worms were incubated in 100 μl M9 for 30 min to eliminate the excess dye in the gut. Finally, worms were paralyzed with 0.5 mM Levamizol (Sigma-Aldrich), placed on slides covered with a thin layer of 2% agarose on top of which the coverslip (22×22 mm, Menzel-Glaser no. 1) was fixed using nail polish. We used a Zeiss LSM 700 inverted laser scanning confocal microscope and a Zeiss LCI Plan-Neofluar 63×/1.3 ImmCorr DIC M27 objective to image mitochondria (Zeiss, Germany). MitoTracker Red CMXRos was excited at 555 nm and the emission above 560 nm was acquired by the second PMT. Optical sections at 0.1×0.1×0.5 μm^3 x-y-z resolution were collected in […]. Final images were adjusted for intensity and merged in Fiji. No non-linear adjustments were made.

[6] = test system: C. elegans; experiment: Oxygen consumption rate (OCR), Seahorse XFe96; format: in vivo; details: 100 mM H2O2 plus supplement (10 mM GA, 100 μM glycine or 500 μM L-serine)
Experimental: Oxygen consumption of worms was measured with a Seahorse XFe96 system (Seahorse Bioscience, North Billerica, MA), as previously described^4. L3 larvae of the different strains were grown on plates or in liquid culture and supplemented for 2-4 days as described for each experiment. After removing bacteria and debris, approximately 100 worms were pipetted into each well of a 96-well Seahorse XF^e assay plate and OCR was measured until it stabilized. Then, 3 subsequent measurements were made at 6.5-min intervals. Finally, the exact number of worms in each well was counted and used for normalization. A small number of abnormal readings were also filtered out at this stage. On average, 7-8 wells (technical replicates) were used for each condition. Normalized OCR values were averaged for the last 3 measurements for each strain and condition. Four biological replicates were analyzed for each condition.

O=C(O)CO [GA, glycolic acid]
Expression of gox-1, ghpr-1, mel-32 and gcs-1 ([1]; glycolate supplementation): moderately induced | Expression of gcst-1 ([1]; peroxide or glycolate supplementation): not significantly altered | Animal growth ([2]; PQ2+ exposure): unable to restore | OCR (Oxygen consumption Rate) ([2]; PQ2+ exposure): unable to restore | Mitochondrial membrane potential ([2]; Paraquat (PQ2+) treated): can restore | GSH/GSSG ratio ([3]; H2O2+GA, control 107.5): 77.4 | Total glutathione ([3]; H2O2 in the presence of GA (10 mM), 3 days): 91 % of the control | Oxidized form of glutathione (GSSG) ([3]; H2O2 with addition of GA): 140 % of the control | Total glutathione, effect of GA addition ([3]; peroxide-treated ghpr-1 and ghpr-1, gox-1, ldh-1 mutant strains): unaffected | Increase in GSSG, rescue by GA ([3]; peroxide-treated ghpr-1 and triple mutants co-incubated with GA): not rescued | Accumulation of H2O2 [4]: diminished | Mitochondrial membrane potential (MMP) [5]: prevented this effect | Respiration rate (OCR) [6]: able to restore both traits
